Laboratory results as given in BindingDB's records for doi:10.1021/np4008798 (The Chinese University of Hong Kong, 2014).

Assay: Inhibition of tyrosinase in mouse Melan-a cells assessed as decrease in L-DOPA Vmax at 60 uM by Lineweaver-Burk plot

## OC[C@H]1O[C@@H](Oc2c(O)cc(O)cc2/C=C/c2ccc(O)cc2)[C@H](O)[C@@H](O)[C@@H]1O
  Ki: 3.1 mM
